Values quoted from earlier work as cited in patent US10251409B2, “Mixtures of matter” (SYMRISE AG, priority 2013, dated 2019).

Details: compared with sugar

## C=C1C[C@@]23CC[C@H]4[C@@](C)(CCC[C@@]4(C)C(=O)O[C@@H]4O[C@H](CO)[C@@H](O)[C@H](O)[C@H]4O)[C@@H]2CC[C@]1(O[C@@H]1O[C@H](CO)[C@@H](O)[C@H](O[C@@H]2O[C@H](CO)[C@@H](O)[C@H](O)[C@H]2O)[C@H]1O[C@@H]1O[C@H](CO)[C@@H](O)[C@H](O)[C@H]1O)C3 [rebaudioside A]
  Sweetening power relative to sugar: up to 450 times
